Measured values: patent US7285546B2, “Cephalotaxanes, their method of preparation and their use in treatment of cancers, leukemias, parasites including those resistant to usual chemotherapeutic agents and as reversal agents” (Stragen Pharma S.A., priority 2000, dated 2007)
Converted amounts (≈) assume the structure as drawn.

What follows are molecules tested on K562 cell line (assay: MTT test of structural analogues of harringtonines on K562 cell line). Details: Homo sapiens, K562, 72 h.
Type: cell-based
Description: Structural analogues of harringtonines described in this invention were tested on K562 cell line, derived from chronic myeloid leukemia cells in blastic transformation (bcr-abl positive). The cell line was purchased from ATCC (American Tissue Culture Collection) and grown in RPMI medium supplemented with 10% heat-inactivated fetal calf serum, 2 mmol/L glutamine, […] penicillin and […] streptomycin. All tested products were initially dissolved in […] (pH=2), supplemented with ultrasound treatment during 1 h. Working concentrations were made by dilution in culture medium (pH around 7). Cells in exponential growth phase were placed into 96-microwell plates in concentration 3×10^4/mL (total volume 200 μL/well) and incubated with drugs for 72 h at 37° C. in 5% CO2 humidified atmosphere. Following incubation, 2 μL of MTT solution (Sigma, St. Louis, Mo.) was added to each well. During the following 6 h of incubation at 37° C., the purple formazan product was formed by conversion of the yellow MTT salt in the mitochondria of the viable cells. The resulting precipitate was dissolved in DMSO and the amount of converted MTT was quantified in an ELISA reader (MR 5000, Dynatech). Each product was tested in triplicate (3×8 wells). Every test contained at least one plate with HHT as control, added in the same concentration as the tested products.
In the case of `COC1=C[C@]23CCCN2CCc2cc4c(cc2[C@@H]3[C@@H]1O)OCO4` [CEPHALOTAXINE (CTX), cephalotaxine, reference compound], the IC50 is reported as 2 µg/mL (≈ 6.34 µM).
With `COC1=C[C@@]23CCCN2CCc2cc4c(cc2[C@@H]3C1OC(=O)[C@@](O)(CCCC(C)(C)O)CC(=O)OCCCCCO)OCO4` (stereo partly drawn) [Example 74, (2′R)-4′-(5-hydroxypentyl)-4′-demethyl-homo harringtonine] the IC50 was 0.024 µg/mL (≈ 0.0389 µM).
`CCC(C)COC(=O)C[C@](O)(CCCC(C)(C)O)C(=O)OC1C(OC)=C[C@@]23CCCN2CCc2cc4c(cc2[C@H]13)OCO4` (stereo partly drawn) [Example 69, (2′R)-4′-(methyl-2-butyl)-4′-demethyl-homoharringtonine] showed an IC50 of 0.029 µg/mL (≈ 0.0482 µM).
In the case of `COC1=C[C@@]23CCCN2CCc2cc4c(cc2[C@@H]3C1OC(=O)[C@@](O)(CCCC(C)(C)O)CC(=O)OCc1ccccc1OC)OCO4` (stereo partly drawn) [Example 90, (2′R)-4′-o-methoxybenzyloxy-4′-demethyl-homoharringtonine], the IC50 is reported as 0.027 µg/mL (≈ 0.0414 µM).
`CCCCOC(=O)C[C@](O)(CCCC(C)(C)O)C(=O)OC1C(OC)=C[C@@]23CCCN2CCc2cc4c(cc2[C@H]13)OCO4` (stereo partly drawn) [Example 50, (2′R)-4′-butyl-4′-demethyl-homoharringtonine] was tested, and the IC50 was 0.013 µg/mL (≈ 0.0221 µM).
With `COC1=C[C@@]23CCCN2CCc2cc4c(cc2[C@@H]3C1OC(=O)[C@@](O)(CCCC(C)(C)O)CC(=O)OCc1ccc([N+](=O)[O-])cc1)OCO4` (stereo partly drawn) [Example 85, (2′R)-4′-p-nitrobenzyloxy-4′-demethyl-homoharringtonine] the IC50 was 0.018 µg/mL (≈ 0.027 µM).
Molecule `COC1=C[C@@]23CCCN2CCc2cc4c(cc2[C@@H]3C1OC(=O)[C@@](O)(CCCC(C)(C)O)CC(=O)SC(C)C)OCO4` (stereo partly drawn) [Example 34, (2′R)-4′-isopropylthio-4′-demethoxy-homoharringtonine] has an IC50 of 0.05 µg/mL (≈ 0.0848 µM).
In the case of `CCOC(=O)C[C@](O)(CCCC(C)(C)O)C(=O)OC1C(OC)=C[C@@]23CCCN2CCc2cc4c(cc2[C@H]13)OCO4` (stereo partly drawn) [Example 25, (2′R)-4′-ethyl-4′-demethyl-homoharringtonine], the IC50 is reported as 0.041 µg/mL (≈ 0.0733 µM).
Work on `COC1=C[C@@]23CCCN2CCc2cc4c(cc2[C@@H]3C1OC(=O)[C@@](O)(CCCC(C)(C)O)CC(=O)Oc1ccccc1)OCO4` (stereo partly drawn) [Example 79, (2′R)-4′-phenoxy-4′-demethylhomoharringtonine] yielded an IC50 of 0.01 µg/mL (≈ 0.0165 µM).
`COC(=O)C[C@](O)(CCC=C(C)C)C(=O)OC1C(OC)=C[C@@]23CCCN2CCc2cc4c(cc2[C@H]13)OCO4` (stereo partly drawn) [Example 61, 4-methyl (2R)-2-hydroxy-2-(4-methyl-pent-3-enyl)succinate of (−)-cephalotaxine] gave an IC50 of 0.0175 µg/mL (≈ 0.0332 µM).
In the case of `CCCCCCCOC(=O)C[C@](O)(CCCC(C)(C)O)C(=O)OC1C(OC)=C[C@@]23CCCN2CCc2cc4c(cc2[C@H]13)OCO4` (stereo partly drawn) [Example 66, (2′R)-4′-heptyl-4′-demethyl-homoharringtonine], the IC50 is reported as 0.003 µg/mL (≈ 0.00476 µM).
In the case of `COC(=O)C[C@](O)(CCC(C)(C)O)C(=O)O[C@@H]1C(OC)=C[C@]23CCCN2CCc2cc4c(cc2[C@H]13)OCO4` [HARRINGTONINE (HHT), harringtonine, reference compound], the IC50 is reported as 0.03 µg/mL (≈ 0.0564 µM).
`COC1=C[C@@]23CCCN2CCc2cc4c(cc2[C@@H]3C1OC(=O)[C@@](O)(CCCC(C)(C)O)CC(=O)OCc1cccc2ccccc12)OCO4` (stereo partly drawn) [Example 81, (2′R)-4′-(1-naphtalenemethoxy)-4′-demethyl-homoharringtonine] showed an IC50 of 0.008 µg/mL (≈ 0.0119 µM).
`COC1=C[C@@]23CCCN2CCc2cc4c(cc2[C@@H]3C1OC(=O)[C@@](O)(CCCC(C)(C)O)CC(=O)OCC1CC1)OCO4` (stereo partly drawn) [Example 49, (2′R)-4′-cyclopropylmethyl-4′-demethyl-homoharringtonine] gave an IC50 of 0.07 µg/mL (≈ 0.12 µM).
`COC1=C[C@@]23CCCN2CCc2cc4c(cc2[C@@H]3C1OC(=O)[C@@](O)(CCCC(C)(C)O)CC(=O)SC)OCO4` (stereo partly drawn) [Example 30, (2′R)-4′-methylthio-4′-demethoxy-homoharringtonine] was tested, and the IC50 was 0.05 µg/mL (≈ 0.089 µM).
Work on `COC1=C[C@]23CCCN2CCc2cc4c(cc2[C@@H]3C1OC(=O)[C@@](O)(CCCC(C)(C)O)CC(=O)OC(C)C)OCO4` (stereo partly drawn) [Example 27, (2′R)-4′-isopropyl-4′-demethyl-homoharringtonine] yielded an IC50 of 0.08 µg/mL (≈ 0.139 µM).
For `C=CCOC(=O)C[C@](O)(CCCC(C)(C)O)C(=O)OC1C(OC)=C[C@@]23CCCN2CCc2cc4c(cc2[C@H]13)OCO4` (stereo partly drawn) [Example 40, (2′R)-4′-(2-propenyl)-4′-demethyl-homoharringtonine], the IC50 was 0.0145 µg/mL (≈ 0.0254 µM).
`CCCCCCCCOC(=O)C[C@](O)(CCCC(C)(C)O)C(=O)OC1C(OC)=C[C@@]23CCCN2CCc2cc4c(cc2[C@H]13)OCO4` (stereo partly drawn) [Example 67, (2′R)-4′-octyl-4′-demethyl-homoharringtonine] was tested, and the IC50 was 0.009 µg/mL (≈ 0.014 µM).
Molecule `CC#CCOC(=O)C[C@](O)(CCCC(C)(C)O)C(=O)OC1C(OC)=C[C@@]23CCCN2CCc2cc4c(cc2[C@H]13)OCO4` (stereo partly drawn) [Example 42, (2′R)-4′-(2-butynyl)-4′-demethyl-homoharringtonine] has an IC50 of 0.0105 µg/mL (≈ 0.018 µM).
For `CCCOC(=O)C[C@](O)(CCCC(C)(C)O)C(=O)OC1C(OC)=C[C@@]23CCCN2CCc2cc4c(cc2[C@H]13)OCO4` (stereo partly drawn) [Example 51, (2′R)-4′-propyl-4′-demethyl-homoharringtonine], the IC50 was 0.0225 µg/mL (≈ 0.0392 µM).
`CCCCCCOC(=O)C[C@](O)(CCC(C)C)C(=O)OC1C(OC)=C[C@@]23CCCN2CCc2cc4c(cc2[C@H]13)OCO4` (stereo partly shown) [Example 84, (2′ R)-4′-hexanyloxy-4′-demethyldeoxyharringtonine] showed an IC50 of 0.007 µg/mL (≈ 0.012 µM).
For `COC1=C[C@@]23CCCN2CCc2cc4c(cc2[C@@H]3C1OC(=O)[C@@](O)(CCCC(C)(C)O)CC(=O)SC(C)(C)C)OCO4` (stereo partly drawn) [Example 36, (2′R)-4′-tert-butylthio-4′-demethoxy-homoharringtonine], the IC50 was 0.02 µg/mL (≈ 0.0331 µM).
With `CCSC(=O)C[C@](O)(CCCC(C)(C)O)C(=O)OC1C(OC)=C[C@@]23CCCN2CCc2cc4c(cc2[C@H]13)OCO4` (stereo partly drawn) [Example 32, (2′R)-4′-ethylthio-4′-demethoxy-homoharringtonine] the IC50 was 0.08 µg/mL (≈ 0.139 µM).
`CCCCCCOC(=O)C[C@](O)(CCCC(C)(C)O)C(=O)OC1C(OC)=C[C@@]23CCCN2CCc2cc4c(cc2[C@H]13)OCO4` (stereo partly drawn) [Example 54, (2′R)-4′-hexyl-4′-demethyl-homoharringtonine] gave an IC50 of 0.005 µg/mL (≈ 0.00812 µM).
In the case of `CC=CCOC(=O)C[C@](O)(CCC(C)(C)O)C(=O)OC1C(OC)=C[C@@]23CCCN2CCc2cc4c(cc2[C@H]13)OCO4` (stereo partly drawn) [Example 55, (2′R)-4′-(but-2-enyl)-4′-demethyl-harringtonine], the IC50 is reported as 0.014 µg/mL (≈ 0.0245 µM).
`COC1=C[C@@]23CCCN2CCc2cc4c(cc2[C@@H]3C1OC(=O)[C@@](O)(CCCC(C)(C)O)CC(=O)OCc1ccc(OC)cc1)OCO4` (stereo partly drawn) [Example 86, (2′R)-4′-p-methoxybenzyloxy-4′-demethyl-homoharringtonine] showed an IC50 of 0.02 µg/mL (≈ 0.0307 µM).
For `COC1=C[C@@]23CCCN2CCc2cc4c(cc2[C@@H]3C1OC(=O)[C@@](O)(CCCC(C)(C)O)CC(=O)OCc1cccc(C)c1)OCO4` (stereo partly drawn) [Example 73, (2′R)-4′-m-methylbenzyl-4′-demethyl-homoharringtonine], the IC50 was 0.004 µg/mL (≈ 0.00629 µM).
`COC1=C[C@@]23CCCN2CCc2cc4c(cc2[C@@H]3C1OC(=O)[C@@](O)(CCCC(C)(C)O)CC(=O)OCC=C(C)C)OCO4` (stereo partly drawn) [Example 39, (2′R)-4′-(3-methyl-2-butenyl)-4′-demethyl-homoharringtonine] gave an IC50 of 0.028 µg/mL (≈ 0.0467 µM).
Molecule `COC1=C[C@@]23CCCN2CCc2cc4c(cc2[C@@H]3C1OC(=O)[C@@](O)(CCCC(C)(C)O)CC(=O)OCCOCc1ccccc1)OCO4` (stereo partly drawn) [Example 80, (2′R)-4′-(2-benzyloxyethoxy)-4′-demethyl-homoharringtonine] has an IC50 of 0.025 µg/mL (≈ 0.0375 µM).
`CC=CCOC(=O)C[C@](O)(CCCC(C)(C)O)C(=O)OC1[C@H]2c3cc4c(cc3[C@@H]3CN5CCC[C@@]25C[C@@]1(OC)O3)OCO4` (stereo partly drawn) [Example 56, 4-(2-butenyl) (2R)-2-hydroxy-2-(4-hydroxy-4-methylpentyl)succinate of (−)-drupacine] showed an IC50 of 0.0135 µg/mL (≈ 0.0224 µM).
Molecule `COC1=C[C@@]23CCCN2CCc2cc4c(cc2[C@@H]3C1OC(=O)[C@@](O)(CCCC(C)(C)O)CC(=O)OCc1cccs1)OCO4` (stereo partly drawn) [Example 82, (2′R)-4′-(2-thiophenemethoxy)-4′-demethyl-homoharringtonine] has an IC50 of 0.005 µg/mL (≈ 0.00796 µM).

Same assay, conditions: Homo sapiens; K562 cell line, 72 h incubation, MTT; read-out: IC50
In the case of `[2H]COC(=O)C[C@](O)(CCCC(C)(C)O)C(=O)OC1C(OC)=C[C@@]23CCCN2CCc2cc4c(cc2[C@H]13)OCO4` (stereo partly drawn) [Example 76, (2′R)-(4′-^2H)homoharringtonine], the IC50 is reported as 0.018 µg/mL (≈ 0.0329 µM).
Work on `[2H]C([2H])([2H])OC(=O)C[C@](O)(CCCC(C)(C)O)C(=O)OC1C(OC)=C[C@@]23CCCN2CCc2cc4c(cc2[C@H]13)OCO4` (stereo partly drawn) [Example 75, (2′R)-(4′-^2H3)homoharringtonine] yielded an IC50 of 0.025 µg/mL (≈ 0.0456 µM).
Molecule `[2H]C([2H])OC(=O)C[C@](O)(CCCC(C)(C)O)C(=O)OC1C(OC)=C[C@@]23CCCN2CCc2cc4c(cc2[C@H]13)OCO4` (stereo partly drawn) [Example 87, (2′R)-(4′-^2H2)homoharringtonine] has an IC50 of 0.021 µg/mL (≈ 0.0383 µM).

Same assay, conditions: K562 cell line, 72 h incubation, MTT
Work on “4-(hexa-2,4-dienyl) (2R)-2-hydroxy-2-(4-hydroxy-4-methylpentyl)succinate of (−)-drupacine [Example 57]” yielded an IC50 of 0.009 µg/mL.
`CC=CCCCOC(=O)C[C@](O)(CCCC(C)(C)O)C(=O)O[C@@H]1C(OC)=C[C@]23CCCN2CCc2cc4c(cc2[C@H]13)OCO4` [Example 53, (2′R)-4′-(hex-4-enyl)-4′-demethyl-homoharringtonine] gave an IC50 of 0.0085 µg/mL (≈ 0.0138 µM).
`C=C(C)COC(=O)C[C@](O)(CCCC(C)(C)O)C(=O)O[C@@H]1C(OC)=C[C@]23CCCN2CCc2cc4c(cc2[C@H]13)OCO4` [Example 41, (2′R)-4′-(2-methyl-2-propenyl)-4′-demethyl-homoharringtonine] gave an IC50 of 0.0085 µg/mL (≈ 0.0145 µM).
